Test results from patent US20140243292A1, “SUBSITUTED 2-(CHROMAN-6-YLOXYL)-THIAZOLES AND THEIR USE AS PHARMACEUTICALS” (Sanofi, priority 2011, published 2014).
Where a name gives a salt, the structure may show the parent alone.

Target: T1, human NCX1 (Homo sapiens, UniProt P32418)
T1 construct: expressed in transfected cells
Assay: NCX1 inhibition, reverse mode (Ca2+ influx into cells), FLIPR Fluo-4 assay
Assay type: cell-based
Details: NCX1 reverse mode; at 30 μM; read-out: Inhibition in % at 30 μM (NCX1rv; IC50 value not determined)
Summary of the method: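 CHO cells stably expressing human NCX1 were loaded with 2 µM Fluo-4 AM for 80 min at room temperature, then preincubated with compound for 45 min at 16 °C in pH 7.4 HEPES buffer (3.5 mM CaCl2, 2.5 mM probenecid). Reverse-mode Ca2+ influx was triggered by 20 µM final gramicidin and read at 520 nm on FLIPR. IC50 came from % inhibition of max−min fluorescence.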

Row | inhibition at 30 µM | Compound
1 | 30% | CCOC(=O)C[C@H](O)[C@H](CC1CCCCC1)NC(=O)c1cnc(Oc2ccc3c(c2)CC[C@@H](c2ccccc2)O3)s1 [compound 227]
2 | 46% | CC(C)C[C@@H](NC(=O)c1cnc(Oc2ccc3c(c2)CC[C@@H](c2ccccc2)O3)s1)C(=O)OC(C)(C)C [compound 228]
3 | 44% | CC(C)C[C@H](NC(=O)c1cnc(Oc2ccc3c(c2)CC[C@@H](c2ccccc2)O3)s1)C(=O)OC(C)(C)C [compound 229]

Same assay, conditions: inhibition of NCX1 in reverse mode (Ca2+ influx into cells); read-out: NCX1rv IC50

Row | Compound | IC50
4 | CCC(C)[C@H](NC(=O)c1cnc(Oc2ccc3c(c2)CC[C@@H](c2ccccc2)O3)s1)C(=O)OC (stereo partly drawn) [compound 183] | 1200 nM
5 | CCOC(=O)[C@@H](NC(=O)c1cnc(Oc2ccc3c(c2)CC[C@@H](c2ccccc2)O3)s1)C(C)C [compound 186] | 700 nM
6 | CN(CC(=O)O)C(=O)c1cnc(Oc2ccc3c(c2)CC[C@@H](c2ccccc2)O3)s1 [compound 190] | 900 nM
7 | C[C@@H](NC(=O)c1cnc(Oc2ccc3c(c2)CC[C@@H](c2ccccc2)O3)s1)C(=O)O [compound 194] | 700 nM
8 | O=C(NC1(C(=O)O)CCCC1)c1cnc(Oc2ccc3c(c2)CC[C@@H](c2ccccc2)O3)s1 [compound 195] | 700 nM
9 | O=C(O)CN1CCN(C(=O)c2cnc(Oc3ccc4c(c3)CC[C@@H](c3ccccc3)O4)s2)CC1 [compound 198] | 1300 nM
10 | O=C(NC1(C(=O)O)CC1)c1cnc(Oc2ccc3c(c2)CC[C@@H](c2ccccc2)O3)s1 [compound 199] | 1000 nM
11 | CN1CCN(C(=O)c2cnc(Oc3ccc4c(c3)CC[C@@H](c3ccccc3)O4)s2)CC1 [compound 213, hydrochloride] | 800 nM
12 | Cc1ccccc1C1CCc2cc(Oc3ncc(C(=O)NCc4ccnc(Cl)c4)s3)ccc2O1 (stereo not drawn) [compound 215] | 1000 nM
13 | COC(=O)C(C)(Cc1ccccc1)NC(=O)c1cnc(Oc2ccc3c(c2)CC[C@@H](c2ccccc2)O3)s1 (stereo partly drawn) [compound 218] | 2500 nM
14 | CCOC(=O)[C@H](Cc1ccccc1)NC(=O)c1cnc(Oc2ccc3c(c2)CC[C@@H](c2ccccc2)O3)s1 [compound 219] | 4800 nM
15 | COC(=O)[C@@H]1[C@@H]2C[C@@H]2CN1C(=O)c1cnc(Oc2ccc3c(c2)CC[C@@H](c2ccccc2)O3)s1 [compound 222] | 900 nM
16 | COC(=O)[C@@H]1CC(C)(C)CN1C(=O)c1cnc(Oc2ccc3c(c2)CC[C@@H](c2ccccc2)O3)s1 [compound 223] | 1300 nM
17 | COC(=O)[C@H](O)[C@H](CC(C)C)NC(=O)c1cnc(Oc2ccc3c(c2)CC[C@@H](c2ccccc2)O3)s1 [compound 226] | 700 nM
18 | CCOC(=O)C(CNC(=O)c1cnc(Oc2ccc3c(c2)CC[C@@H](c2ccccc2)O3)s1)CC(C)C (stereo partly drawn) [compound 230] | 1500 nM
19 | COC(=O)C(C)(CC(C)C)NC(=O)c1cnc(Oc2ccc3c(c2)CC[C@@H](c2ccccc2)O3)s1 (stereo partly drawn) [compound 231] | 1500 nM

Row | Compound | IC50
20 | Cc1ccc(C2CCc3cc(Oc4ncc(C(=O)NCc5ccno5)s4)ccc3O2)cn1 (stereo not drawn) [compound 232] | 1500 nM
21 | CC(Cc1ccccc1)(NC(=O)c1cnc(Oc2ccc3c(c2)CC[C@@H](c2ccccc2)O3)s1)C(=O)O (stereo partly drawn) [compound 233] | 800 nM
22 | CC1(C)C[C@@H](C(=O)O)N(C(=O)c2cnc(Oc3ccc4c(c3)CC[C@@H](c3ccccc3)O4)s2)C1 [compound 234] | 1000 nM
23 | CC(C)C[C@H](NC(=O)c1cnc(Oc2ccc3c(c2)CC[C@@H](c2ccccc2)O3)s1)[C@@H](O)C(=O)O [compound 236] | 1600 nM
24 | CC(C)C[C@@H](NC(=O)c1cnc(Oc2ccc3c(c2)CC[C@@H](c2ccccc2)O3)s1)C(=O)O [compound 237] | 800 nM
25 | CC1(C(=O)O)CCN(C(=O)c2cnc(Oc3ccc4c(c3)CC[C@@H](c3ccccc3)O4)s2)C1 (stereo partly drawn) [compound 239] | 2400 nM
26 | O=C(O)C[C@H](O)[C@H](CC1CCCCC1)NC(=O)c1cnc(Oc2ccc3c(c2)CC[C@@H](c2ccccc2)O3)s1 [compound 240] | 1100 nM
27 | CC(C)CC(C)(NC(=O)c1cnc(Oc2ccc3c(c2)CC[C@@H](c2ccccc2)O3)s1)C(=O)O (stereo partly drawn) [compound 242] | 700 nM
28 | O=C(NCc1ccnc(Cl)c1)c1cnc(Oc2ccc3c(c2)CCC(c2cncc(F)c2)O3)s1 (stereo not drawn) [compound 247] | 700 nM
29 | O=C(NCc1ccno1)c1cnc(Oc2ccc3c(c2)CCC(c2cncc(F)c2)O3)s1 (stereo not drawn) [compound 248] | 800 nM
30 | O=C(NCCO)c1cnc(Oc2ccc3c(c2)CCC(c2cccnc2)O3)s1 (stereo not drawn) [compound 249] | 1400 nM
31 | COC(=O)CNC(=O)c1cnc(Oc2ccc3c(c2)CCC(c2cccnc2)O3)s1 (stereo not drawn) [compound 250] | 1200 nM
32 | O=C(N[C@H](CO)c1ccccc1)c1cnc(Oc2ccc3c(c2)CCC(c2cccnc2)O3)s1 (stereo partly drawn) [compound 251] | 1100 nM
33 | O=C(NC(CCO)C1CC1)c1cnc(Oc2ccc3c(c2)CCC(c2cccnc2)O3)s1 (stereo not drawn) [compound 252] | 3200 nM
34 | O=C(NCCO)c1cnc(Oc2ccc3c(c2)CCC(c2cncc(F)c2)O3)s1 (stereo not drawn) [compound 253] | 600 nM

Results, then the compound that gave them:

Row | IC50 | Compound
35 | 400 nM | COC(=O)[C@@H](C)NC(=O)c1cnc(Oc2ccc3c(c2)CC[C@@H](c2ccccc2)O3)s1 [compound 184]
36 | 500 nM | COC(=O)[C@@H]1CCCN1C(=O)c1cnc(Oc2ccc3c(c2)CC[C@@H](c2ccccc2)O3)s1 [compound 185]
37 | 600 nM | COC(=O)C1(NC(=O)c2cnc(Oc3ccc4c(c3)CC[C@@H](c3ccccc3)O4)s2)CCCC1 [compound 187]
38 | 600 nM | CCOC(=O)C1(NC(=O)c2cnc(Oc3ccc4c(c3)CC[C@@H](c3ccccc3)O4)s2)CC1 [compound 188]
39 | 600 nM | C[C@H](NC(=O)c1cnc(Oc2ccc3c(c2)CC[C@@H](c2ccccc2)O3)s1)C(=O)O [compound 191]
40 | 500 nM | O=C(O)CNC(=O)c1cnc(Oc2ccc3c(c2)CC[C@@H](c2ccccc2)O3)s1 [compound 192]
41 | 600 nM | CC(C)(NC(=O)c1cnc(Oc2ccc3c(c2)CC[C@@H](c2ccccc2)O3)s1)C(=O)O [compound 193]
42 | 500 nM | CCC(C)[C@H](NC(=O)c1cnc(Oc2ccc3c(c2)CC[C@@H](c2ccccc2)O3)s1)C(=O)O (stereo partly drawn) [compound 196]
43 | 600 nM | CC(C)[C@H](NC(=O)c1cnc(Oc2ccc3c(c2)CC[C@@H](c2ccccc2)O3)s1)C(=O)O [compound 197]
44 | 400 nM | O=C(N[C@H]1CCCC[C@H]1C(=O)O)c1cnc(Oc2ccc3c(c2)CC[C@@H](c2ccccc2)O3)s1 [compound 200]
45 | 300 nM | O=C(N[C@H](CO)c1ccccc1)c1cnc(Oc2ccc3c(c2)CC[C@@H](c2ccccc2)O3)s1 [compound 201]
46 | 200 nM | C[C@H](O)[C@H](CO)NC(=O)c1cnc(Oc2ccc3c(c2)CC[C@@H](c2ccccc2)O3)s1 [compound 202]
47 | 400 nM | CC(C)[C@@H](CO)NC(=O)c1cnc(Oc2ccc3c(c2)CC[C@@H](c2ccccc2)O3)s1 [compound 203]
48 | 100 nM | O=C(NCCO)c1cnc(Oc2ccc3c(c2)CC[C@@H](c2ccccc2)O3)s1 [compound 204]
49 | 300 nM | O=C(c1cnc(Oc2ccc3c(c2)CC[C@@H](c2ccccc2)O3)s1)N1CCC[C@H]1CO [compound 205]
50 | 500 nM | O=C(NC[C@H]1CCCC[C@H]1O)c1cnc(Oc2ccc3c(c2)CC[C@@H](c2ccccc2)O3)s1 [compound 207]
51 | 400 nM | CC[C@H](C)[C@@H](CO)NC(=O)c1cnc(Oc2ccc3c(c2)CC[C@@H](c2ccccc2)O3)s1 [compound 208]
52 | 300 nM | CC[C@@H](C)[C@H](CO)NC(=O)c1cnc(Oc2ccc3c(c2)CC[C@@H](c2ccccc2)O3)s1 [compound 209]

Row | IC50 | Compound
53 | 100 nM | c1ccc([C@@H]2CCc3cc(Oc4ncc(CNCc5ccno5)s4)ccc3O2)cc1 [compound 210]
54 | 400 nM | O=C(NCc1ccnc(Cl)c1)c1cnc(Oc2ccc3c(c2)CCC(c2ccsc2)O3)s1 (stereo not drawn) [compound 211, hydrochloride]
55 | 300 nM | O=C(NCc1ccno1)c1cnc(Oc2ccc3c(c2)CCC(c2ccsc2)O3)s1 (stereo not drawn) [compound 212]
56 | 200 nM | O=C(NCc1ccno1)c1cnc(Oc2ccc3c(c2)CCC(c2cc(F)ccc2F)O3)s1 (stereo not drawn) [compound 217]
57 | 600 nM | COC(=O)[C@@H](NC(=O)c1cnc(Oc2ccc3c(c2)CC[C@@H](c2ccccc2)O3)s1)C(C)(C)C [compound 220]
58 | 300 nM | COC(=O)C1CN(C(=O)c2cnc(Oc3ccc4c(c3)CC[C@@H](c3ccccc3)O4)s2)CC1C(F)(F)F (stereo partly drawn) [compound 221]
59 | 300 nM | COC(=O)C1CN(C(=O)c2cnc(Oc3ccc4c(c3)CC[C@@H](c3ccccc3)O4)s2)CC1C (stereo partly drawn) [compound 224]
60 | 500 nM | COC(=O)C1(C)CCN(C(=O)c2cnc(Oc3ccc4c(c3)CC[C@@H](c3ccccc3)O4)s2)C1 (stereo partly drawn) [compound 225]
61 | 500 nM | CC1CN(C(=O)c2cnc(Oc3ccc4c(c3)CC[C@@H](c3ccccc3)O4)s2)CC1C(=O)O (stereo partly drawn) [compound 235]
62 | 300 nM | CC(C)CC(CNC(=O)c1cnc(Oc2ccc3c(c2)CC[C@@H](c2ccccc2)O3)s1)C(=O)O (stereo partly drawn) [compound 238]
63 | 600 nM | CC(C)C[C@H](NC(=O)c1cnc(Oc2ccc3c(c2)CC[C@@H](c2ccccc2)O3)s1)C(=O)O [compound 241]
64 | 600 nM | O=C(N[C@@H](Cc1ccccc1)C(=O)O)c1cnc(Oc2ccc3c(c2)CC[C@@H](c2ccccc2)O3)s1 [compound 244]
65 | 100 nM | COC(=O)CNCc1cnc(Oc2ccc3c(c2)CC[C@@H](c2ccccc2)O3)s1 [compound 245]
66 | 600 nM | O=C(O)CNCc1cnc(Oc2ccc3c(c2)CC[C@@H](c2ccccc2)O3)s1 [compound 246]
67 | 400 nM | CO[C@H]1CNC[C@@H]1NC(=O)c1cnc(Oc2ccc3c(c2)CC[C@@H](c2ccccc2)O3)s1 [compound 254]
68 | 300 nM | N[C@H]1C[C@@H]1NC(=O)c1cnc(Oc2ccc3c(c2)CC[C@@H](c2ccccc2)O3)s1 [compound 256]
69 | 400 nM | NC1CC(NC(=O)c2cnc(Oc3ccc4c(c3)CC[C@@H](c3ccccc3)O4)s2)C1 (stereo partly drawn) [compound 257]
